Reference: patent US5352804A, “Isolation and structure of Halistatin 2” (Arizona Board of Regents, a body corporate, acting on …, priority 1993, dated 1994)
Like-named read-outs stand apart in the source and are kept apart here.

How the values were obtained:
Experiment in all cases: NCI human tumor in vitro primary screen
Format in all cases: cell-based
CAKI-1 = tested on: CAKI-1
Text: (§1) Only two hundred years ago, many diseases ravaged humankind. Many of these diseases now have been controlled or eradicated. In the development of the means to treat or control these diseases, work with the appropriate common experimental animals was of critical importance. With the various types of cancers, and with the HIV virus, such work is presently ongoing. The research for the treatment of various types of cancer is coordinated in the United States by the National Cancer Institute (NCI). NCI, as a government entity, has been charged with assisting anti-cancer research. To establish whether a substance has anti cancer activity, NCI has established a variety of protocols, one of which involves testing the candidate substance against a cell line panel containing 60 human tumor cell lines. This protocol has been verified and is generally accepted throughout the scientific community. This protocol and the established statistical means of evaluating the results obtained therefrom have been fully described in the literature. See Principles & Practice of Oncology PPO Updates, Volume 3, Number 10, Oct. 1989, by Michael R. Boyd, M.D., Ph.D., for an indepth description of the test protocol. The statistical analysis is explained in "Display and Analysis of Patterns of Differential Activity of Drugs Against Human Tumor Cell Lines: Development of Means Graph and COMPARE Algorithm" Journal of the National Cancer Institute Reports Vol. 81, No. 14, Pg. 1088, Jul. 14, 1989, by K. D. Paull et al. Both of these references are incorporated herein by this reference thereto.
(§2) Biological Testing; Data Display and Analysis; Screening Data Summary. Freshly isolated halistatin 2 was tested in the NCI's human tumor, disease-oriented in vitro primary screen, and data calculations performed. Table 3 is a composite prepared from mean graphs constructed from the averaged GI50 values from quadruplicate screenings of Halistatin 2.

SN12C = settings: renal cancer
Text: as §1, §2

A498 = settings: renal cancer
Text: as §1, §2

DLD-1 = settings: colon cancer
Text: as §1, §2

MOLT-4 = settings: leukemia
Text: as §1, §2

NCI-H522 = tested on: NCI-H522
Text: as §1, §2

UACC-62 = settings: melanoma
Text: as §1, §2

XF 498 = tested on: XF 498
Text: as §1, §2

HCT-15 = settings: colon cancer
Text: as §1, §2

SNB-19 = settings: CNS cancer
Text: as §1, §2

TK-10 = settings: renal cancer
Text: as §1, §2

SK-MEL-5 = settings: melanoma
Text: as §1, §2

UACC-257 = settings: melanoma
Text: as §1, §2

SR = settings: leukemia, read-out: averaged negative log10 GI50 (converted)
Text: as §1, §2

K-562 = settings: K562, leukemia
Text: as §1, §2

HOP-18 = settings: non-small cell lung cancer
Text: as §1, §2

EKVX = settings: non-small cell lung cancer
Text: as §1, §2

HOP-92 = settings: non-small cell lung cancer
Text: as §1, §2

SK-OV-3 = settings: ovarian cancer
Text: as §1, §2

SW-620 = settings: colon cancer
Text: as §1, §2

NCI-H23 = tested on: NCI-H23
Text: as §1, §2

HT29 = settings: HT-29, colon cancer
Text: as §1, §2

NCI-H460 = tested on: NCI-H460
Text: as §1, §2

HCC-2998 = settings: colon cancer
Text: as §1, §2

[1] = read-out: Log10 GI50 (converted)
[2] = read-out: Log10 TGI (converted)
[3] = read-out: averaged negative log10 GI50 (converted)
[4] = non-small cell lung cancer, read-out: averaged negative log10 GI50 (converted)

C=C1CC2CCC34CC5OC6C(O3)C3OC(CCC3OC6(O)C5O4)CC(=O)OC3C(CC4OC(CCC1O2)CC(C)C4=C)OC1CC2OC4(CC2OC1C3C)CC1OC2(CC(C)C3OC5CC(C(O)CO)OC5CC3O2)CC(C)C1O4 (stereo not shown) [halistatin 2]
GI50 (CAKI-1; CAKl-1, renal cancer, read-out: Log10 GI50 (converted)): 1.29 nM
IC (TGI) (CAKI-1; CAKl-1, renal cancer, read-out: Log10 TGI (converted)): 10 nM
GI50 (CAKI-1; renal cancer, read-out: averaged negative log10 GI50 (converted)): 1.29 nM
GI50 (SN12C; [1]): 1.82 nM
IC (TGI) (SN12C; [2]): 10 nM
GI50 (SN12C; [3]): 1.82 nM
GI50 (A498; [1]): 1.82 nM
IC (TGI) (A498; [2]): 10 nM
GI50 (A498; [3]): 1.82 nM
GI50 (DLD-1; [1]): 1.2 nM
IC (TGI) (DLD-1; [2]): 10 nM
GI50 (DLD-1; [3]): 1.2 nM
GI50 (MOLT-4; [1]): 0.407 nM
IC (TGI) (MOLT-4; [2]): 10 nM
GI50 (MOLT-4; [3]): 0.407 nM
GI50 (NCI-H522; NCl-H522, non-small cell lung cancer, read-out: Log10 GI50 (converted)): 0.2 nM
IC (TGI) (NCI-H522; NCl-H522, non-small cell lung cancer, read-out: Log10 TGI (converted)): 0.55 nM
GI50 (NCI-H522; [4]): 0.2 nM
GI50 (UACC-62; [1]): 0.339 nM
IC (TGI) (UACC-62; [2]): 10 nM
GI50 (UACC-62; [3]): 0.339 nM
GI50 (XF 498; XF498, CNS cancer, read-out: Log10 GI50 (converted)): 0.427 nM
IC (TGI) (XF 498; XF498, CNS cancer, read-out: Log10 TGI (converted)): 4.47 nM
GI50 (XF 498; XF498, XF 498, CNS cancer, read-out: averaged negative log10 GI50 (converted)): 0.427 nM
GI50 (HCT-15; [1]): 5.5 nM
IC (TGI) (HCT-15; [2]): 10 nM
GI50 (HCT-15; [3]): 5.5 nM
GI50 (SNB-19; [1]): 2.09 nM
IC (TGI) (SNB-19; [2]): 10 nM
GI50 (SNB-19; [3]): 2.09 nM
GI50 (TK-10; [1]): 5.5 nM
IC (TGI) (TK-10; [2]): 10 nM
GI50 (TK-10; [3]): 5.5 nM
GI50 (SK-MEL-5; [1]): 0.182 nM
IC (TGI) (SK-MEL-5; [2]): 1.82 nM
GI50 (SK-MEL-5; [3]): 0.182 nM
GI50 (UACC-257; [1]): 2.29 nM
IC (TGI) (UACC-257; [2]): 10 nM
GI50 (UACC-257; [3]): 2.29 nM
GI50 (SR): 0.214 nM
GI50 (K-562; [1]): 0.229 nM
IC (TGI) (K-562; [2]): 2.57 nM
GI50 (K-562; [3]): 0.229 nM
GI50 (HOP-18; [1]): 2.82 nM
IC (TGI) (HOP-18; [2]): 10 nM
GI50 (HOP-18; [3]): 2.82 nM
GI50 (EKVX; [1]): 4.07 nM
IC (TGI) (EKVX; [2]): 10 nM
GI50 (EKVX; [3]): 4.07 nM
GI50 (HOP-92; [1]): 1.2 nM
IC (TGI) (HOP-92; [2]): 10 nM
GI50 (HOP-92; [3]): 1.2 nM
GI50 (SK-OV-3; [1]): 0.676 nM
IC (TGI) (SK-OV-3; [2]): 10 nM
GI50 (SK-OV-3; [3]): 0.676 nM
GI50 (SW-620; [1]): 0.398 nM
IC (TGI) (SW-620; [2]): 10 nM
GI50 (SW-620; [3]): 0.398 nM
GI50 (NCI-H23; NCl-H23, non-small cell lung cancer, read-out: Log10 GI50 (converted)): 0.661 nM
IC (TGI) (NCI-H23; NCl-H23, non-small cell lung cancer, read-out: Log10 TGI (converted)): 6.76 nM
GI50 (NCI-H23; [4]): 0.661 nM
GI50 (HT29; [1]): 0.457 nM
IC (TGI) (HT29; [2]): 3.72 nM
GI50 (HT29; [3]): 0.457 nM
GI50 (NCI-H460; NCl-H460, non-small cell lung cancer, read-out: Log10 GI50 (converted)): 0.38 nM
IC (TGI) (NCI-H460; NCl-H460, non-small cell lung cancer, read-out: Log10 TGI (converted)): 6.76 nM
GI50 (NCI-H460; [4]): 0.38 nM
GI50 (HCC-2998; [1]): 1.29 nM
IC (TGI) (HCC-2998; [2]): 5.25 nM
GI50 (HCC-2998; [3]): 1.29 nM
